Publication PMC8767159, “Multiparameter Optimization of Trypanocidal Cruzain Inhibitors With In Vivo Activity and Favorable Pharmacokinetics” (Frontiers in Pharmacology, 2022)

Assays:
[1] = In vitro metabolic stability in human liver microsomes; assay type: in vitro ADME; settings: for CLint (L/h/kg) Human: Table S5; for CLint_u (L/h/kg) Human: Table S5, CLint/fu
Description: (§1) Isolated mouse (BD Gentest, Bedford, MA) and human liver microsomes (XenoTech, Kansas City, KS) ([Plant, 2004]) were added at a final concentration of 0.25 mg/ml to a solution containing 40 mM dibasic potassium phosphate and 10 mM monobasic potassium phosphate. Stock solutions of compounds at 5 mM were prepared in 100% DMSO. A 50:50 quenching solution of acetonitrile (ACN) and methanol (MeOH) was prepared. An NADPH solution was prepared at 10 mM. The preparations containing the microsomes were added to each well of the incubation plate (450 µl), which was then heated to 37°C for 10 min. The compounds were added to the respective wells of the test plate (2 µl). Then, 300 µl of the microsome preparation was added to each well of the test plate. The test plate was heated under gentle rotation for 5 min at 37°C. Next, 90 µl of the mixture contained in the test plate was added to the incubation plate, making a final volume of 540 µl. Samples were collected at the following incubation times: 0, 5, 10, 15, 20, and 30 min. To the 0 min sample plate, quenching solution (180 µl), NADPH (6 µl), and the incubation plate mixture (54 µl) were added to each well. The sample plate was then sealed, homogenized, and stored at 4°C. Then, 54 µl of the NADPH solution was added to the incubation plate, which was homogenized. Before the collection of each sample at the established times, 45 µl of the quenching solution was added to each well of the corresponding sample plates. After reaching the incubation times, 60 µl of the mixture contained in the incubation plate was added to the corresponding sample plates. The sample plates were then sealed and stored at 4°C. After the collection of the last sample (30 min), all sample plates were centrifuged at 3,800 rpm for 30 min. The supernatant from each well was collected and transferred to clean plates for mass spectrometry. Five to 10 µl of each sample was injected into an AB Sciex Triple Quad 5500 LC-MS/MS instrument.
(§2) For the biotransformation experiments and analysis of metabolites in microsomes, an Ultra-High-Pressure Liquid Chromatography instrument (UHPLC, Thermo Accela, Waltham, MA) ([Spaggiari et al., 2014]) connected to an automatic sample injector and a 1250 series pump was used. The UHPLC system was connected to a Thermo Fisher (Waltham, MA) LTQ Orbitrap mass spectrometer. For all other analyses, an AB Sciex Triple Quad 5500 coupled to a UHPLC equipped with a UV 1290 diode detector (Agilent Technologies, Santa Clara, CA) and a CTC PAL self-collecting system (LEAP Technologies, Carrboro, NC) was used. Q1 MS positive ion mode (300–500 Da) was used to detect the ions of the parent compounds. The UV detector was operated in spectral mode (250–280 nm). A Hypersil Gold C18 (2.1 mm × 100 mm, 1.9 µm, Thermo Fisher) HPLC column was used. The mobile phases were solvent A (0.1% formic acid in water) and solvent B (0.1% formic acid in ACN). The flow was adjusted to 0.55 ml/min, and the injection volume was adjusted to […]. The gradient started with 1% solvent B for 0.4 min, reached 40% (solvent B) in 2.3 min and 95% (solvent B) in 0.67 min, was maintained for 0.5 min, and returned to the initial condition of 1%. This condition was maintained for 1 min before injection of the next sample. The peak area ratio (peak area of the test compounds/peak area of the control compounds) was converted to the percentage of remaining compound, with the 0 min time point ratio set to 100%. T½ and CLint were calculated from the percentage of remaining compound versus the incubation time. From the resulting function, the slope (k) was determined. The equations T1/2 (min) = ln(2)/k and CLint in vitro (μL/min/mg) = k*1000/0.25 were used to determine T½ and CLint.

[2] = In vitro metabolic stability in mouse liver microsomes; assay type: in vitro ADME; settings: for CLint (L/h/kg) Mouse: Table S5; for CLint_u (L/h/kg) Mouse: Table S5, CLint/fu
Description: as §1, §2

[3] = Fraction unbound by equilibrium dialysis; assay type: in vitro ADME; settings: Table S5; fraction unbound
Description: The fraction unbound (fu) ([Masimirembwa et al., 2003]) of the test compounds was determined after incubation with different media, namely, plasma, microsomes, and buffer with 10% FCS. Equilibrium dialysis was performed in a 96-well plate (HT-Dialysis, Gales Ferry, CT) in which each well was divided by a semipermeable membrane (12–14 kDa cutoff). The test compounds diluted in either plasma, microsome suspension, or buffer were added to one side of the membrane. Potassium phosphate buffer (50 mM, pH 7.4) was added to the other side of the membrane. A standard curve was used to calculate the compound concentration (fu) on each side of the membrane. Stock solutions of each compound were prepared in 100% DMSO to obtain a final concentration of 1 mM. The following compound concentrations were used: 1, 2, 20, 200, 2,000 and 5,000 nM. To 500 μl of medium, 0.5 μl of the compound stock solution was added, and this was applied to one side of the well. Each compound was evaluated in triplicate. Next, the plate was assembled, sealed, and incubated at 37°C under rotation (150 rpm) for 4 h. After the incubation period, the plates were subjected to LC-MS/MS.

[4] = biological target: T1, cruzain (Trypanosoma cruzi, UniProt P25779); test: Cruzain enzyme inhibition assay (cleavage of fluorogenic substrate Z-FR-AMC); assay type: biochemical; settings: for inhibition at 100 µM: compound 100 µM, mean of three measures
T1 construct: made in house; host or cells: Escherichia coli (strain M15)
Description: Pro-cruzain truncated at the C-terminus was expressed and purified using a previously described protocol ([Ferreira et al., 2019]). Escherichia coli (strain M15) cultures were grown overnight at 37°C and 200 rpm in Luria Bertani (LB) medium supplemented with ampicillin (100 μg/ml) and kanamycin (50 μg/ml). Next, the cultures were diluted 10-fold in fresh LB medium supplemented with 0.5 M NaCl, 0.2% glucose, 1 mM betaine, 0.5 M sorbitol, 100 μg/ml ampicillin, and 50 μg/ml kanamycin and incubated at 37°C and 200 rpm. At an optical density (OD600) of 0.9, the cultures were incubated at 47°C for 20 min to promote the expression of chaperones. Then, the expression of cruzain was induced by adding isopropyl β-D-thiogalactopyranoside (IPTG) to a final concentration of 0.2 mM, which was followed by overnight incubation of the cultures at 20°C and 200 rpm. Next, the cultures were centrifuged (5,000 rpm, 30 min, 4°C), and the cells were suspended in 50 ml of lysis buffer (300 mM NaCl, 50 mM Tris-HCl, and 1.6 mg/ml lysozyme, pH 8.0) per liter of culture and lysed by sonication (12 cycles of 30 s). This cell lysate was centrifuged (9,000 rpm, 30 min, 4°C), and the supernatant was collected. Cruzain was precipitated by incubation with 35% ammonium sulfate (2 h), and this suspension was centrifuged at 9,000 rpm for 30 min at 4°C. The precipitated cruzain was resuspended in lysis buffer, and the sample was dialyzed to eliminate ammonium sulfate. The soluble fraction of the dialysate was loaded on a Ni−NTA column (Qiagen, Hilden, Germany), and the contaminants were washed using washing buffer (300 mM NaCl, 50 mM Tris-HCl, and 10 mM imidazole, pH 8.0). Cruzain was eluted by applying an increasing imidazole gradient: 25, 50, 75, 100, and 250 mM. The fractions containing cruzain were pooled together and dialyzed against 1.5 L of 0.1 M acetate buffer, pH 5.5, and then concentrated to 0.5 mg/ml. Pro-cruzain was activated by incubation with activation buffer (100 mM sodium acetate, pH 5.5, 10 mM EDTA, 5 mM DTT, and 1 M NaCl) at 37°C. […] After activation, the enzyme was diluted 20-fold in binding buffer (20 mM sodium phosphate and 150 mM NaCl, pH 7.2) and added to thiopropyl Sepharose 6B resin (GE Healthcare Life Sciences, Pittsburgh, PA). After overnight incubation at 4°C, the resin was loaded on a column, and cruzain was eluted with binding buffer supplemented with 20 mM DTT. Fractions containing cruzain were pooled together and stored in 0.1 M sodium acetate, pH 5.5, at −80°C.
Cruzain activity was followed by monitoring the cleavage of the fluorogenic substrate Z-Phe-Arg-aminomethyl coumarin (Z-FR-AMC), as previously described ([Ferreira et al., 2019]), using 96-well flat-bottom black plates and wavelengths of 355 nm for excitation and 460 nm for emission. All cruzain assays were performed in 0.1 M sodium acetate buffer with 5 mM dithiothreitol (DTT) and 0.01% Triton X-100, pH 5.5. […] The cleavage of the substrate was monitored for 5 min, and the activity was calculated based on the initial reaction rates compared with the rate of a DMSO control at 30°C. The IC50 values were independently calculated by considering the rate measurements for at least six inhibitor concentrations, each evaluated in triplicate. To determine the mechanism of cruzain inhibition, eight concentrations of the substrate Z-FR-AMC and four concentrations of the inhibitor were employed, each in triplicate. Kinetic parameters were determined using the SigmaPlot (Systat Software Inc., Erkrath, Germany) enzyme kinetics module. Compounds were tested in two or three independent experiments. All enzyme assays were performed using varying Triton X-100 concentrations (0, 0.01, and 0.1%) ([Ferreira et al., 2009]). Compound concentrations were 100 μM in the single-dose percentage inhibition assays.

T1 sequence (P25779 123-337 limits assumed): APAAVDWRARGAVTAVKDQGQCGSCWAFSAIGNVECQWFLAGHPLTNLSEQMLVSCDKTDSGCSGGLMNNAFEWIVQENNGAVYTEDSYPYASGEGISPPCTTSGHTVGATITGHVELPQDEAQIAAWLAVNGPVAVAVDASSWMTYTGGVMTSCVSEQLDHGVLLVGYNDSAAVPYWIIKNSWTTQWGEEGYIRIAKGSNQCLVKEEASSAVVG

Compound: CC(=O)NCCc1nc2ccccc2n1CCOc1ccccc1 [Compound 55]
- CLint (L/h/kg) Human [1]: 1.78 L/h/kg
- CLint_u (L/h/kg) Human [1]: 1.94 L/h/kg
- CLint (L/h/kg) Mouse [2]: 35.90 L/h/kg
- CLint_u (L/h/kg) Mouse [2]: 39.06 L/h/kg
- fu [3]: 0.91

Compound: COc1ccc(C(=O)Cn2c(CCNC(=O)COc3ccc4ccccc4c3Br)nc3ccccc32)cc1 [Compound 63]
- CLint (L/h/kg) Human [1]: 40.40 L/h/kg
- CLint_u (L/h/kg) Human [1]: 2,104.17 L/h/kg
- CLint (L/h/kg) Mouse [2]: 50.10 L/h/kg
- CLint_u (L/h/kg) Mouse [2]: 2,609.38 L/h/kg
- fu [3]: 0.02

Compound: CC(=O)NCCc1nc2ccccc2n1CCOc1ccccc1Br [Compound 57]
- CLint (L/h/kg) Human [1]: 9.38 L/h/kg
- CLint_u (L/h/kg) Human [1]: 9.97 L/h/kg
- CLint (L/h/kg) Mouse [2]: 306.00 L/h/kg
- CLint_u (L/h/kg) Mouse [2]: 325.19 L/h/kg
- fu [3]: 0.94

Compound: COc1cc(OCC(=O)NCCc2nc3ccccc3[nH]2)ccc1[N+](=O)[O-] [Compound 16]
- inhibition at 100 µM [4]: 62%

Compound: Cc1cc(C)c(C#N)c(SCC(=O)NCCc2nc3ccccc3[nH]2)n1 [Compound 59]
- CLint (L/h/kg) Human [1]: 61.50 L/h/kg
- CLint_u (L/h/kg) Human [1]: 64.36 L/h/kg
- CLint (L/h/kg) Mouse [2]: 433.00 L/h/kg
- CLint_u (L/h/kg) Mouse [2]: 453.17 L/h/kg
- fu [3]: 0.96

Compound: CC(=O)Nc1ccccc1OCC(=O)NCCc1nc2ccccc2[nH]1 [Compound 43]
- CLint (L/h/kg) Human [1]: 3.94 L/h/kg
- CLint_u (L/h/kg) Human [1]: 3.94 L/h/kg
- CLint (L/h/kg) Mouse [2]: 10.30 L/h/kg
- CLint_u (L/h/kg) Mouse [2]: 10.30 L/h/kg
- fu [3]: 1.00

Compound: O=C(CSc1ccccc1)NCCc1nc2ccccc2[nH]1 [Compound 48]
- CLint (L/h/kg) Human [1]: 9.07 L/h/kg
- CLint_u (L/h/kg) Human [1]: 11.38 L/h/kg
- CLint (L/h/kg) Mouse [2]: 234.00 L/h/kg
- CLint_u (L/h/kg) Mouse [2]: 293.60 L/h/kg
- fu [3]: 0.80

Compound: O=C(COc1ccccc1Cl)NCCc1nc2ccccc2[nH]1 [Compound 40]
- CLint (L/h/kg) Human [1]: 19.50 L/h/kg
- CLint_u (L/h/kg) Human [1]: 22.70 L/h/kg
- CLint_u (L/h/kg) Mouse [2]: 419.09 L/h/kg
- fu [3]: 0.86

Compound: O=C(CCOc1ccccc1)NCCc1c[nH]c2ccccc12 [Compound 58]
- CLint (L/h/kg) Human [1]: 14.20 L/h/kg
- CLint_u (L/h/kg) Human [1]: 16.99 L/h/kg
- CLint (L/h/kg) Mouse [2]: 536.00 L/h/kg
- CLint_u (L/h/kg) Mouse [2]: 641.15 L/h/kg
- fu [3]: 0.84

Compound: O=C(CCOc1ccccc1)NCCc1nc2ccccc2[nH]1 [Compound 49]
- CLint (L/h/kg) Human [1]: 3.28 L/h/kg
- CLint_u (L/h/kg) Human [1]: 3.28 L/h/kg
- CLint (L/h/kg) Mouse [2]: 86.20 L/h/kg
- CLint_u (L/h/kg) Mouse [2]: 86.20 L/h/kg
- fu [3]: 1.00

Compound: CC(=O)NCCc1nc2ccccc2n1CCOCc1ccccc1 [Compound 56]
- CLint (L/h/kg) Human [1]: 4.75 L/h/kg
- CLint_u (L/h/kg) Human [1]: 4.90 L/h/kg
- CLint (L/h/kg) Mouse [2]: 95.10 L/h/kg
- CLint_u (L/h/kg) Mouse [2]: 98.14 L/h/kg
- fu [3]: 0.97

Compound: O=Cc1c(OCC(=O)NCCc2nc3ccccc3[nH]2)ccc2ccccc12 [Compound 45]
- CLint (L/h/kg) Human [1]: 37.30 L/h/kg
- CLint_u (L/h/kg) Human [1]: 71.18 L/h/kg
- CLint (L/h/kg) Mouse [2]: 669.00 L/h/kg
- CLint_u (L/h/kg) Mouse [2]: 1,276.72 L/h/kg
- fu [3]: 0.52

Compound: Cc1ccc2[nH]c(CCNC(=O)COc3ccc4ccccc4c3Br)nc2c1 [Compound 54]
- CLint (L/h/kg) Human [1]: 65.00 L/h/kg
- CLint_u (L/h/kg) Human [1]: 1,334.7 L/h/kg
- CLint (L/h/kg) Mouse [2]: 528.00 L/h/kg
- fu [3]: 0.05

Compound: Nc1ccccc1OCC(=O)NCCc1nc2ccccc2[nH]1 [Compound 42]
- CLint (L/h/kg) Human [1]: 3.91 L/h/kg
- CLint_u (L/h/kg) Human [1]: 4.64 L/h/kg
- CLint (L/h/kg) Mouse [2]: 24.80 L/h/kg
- CLint_u (L/h/kg) Mouse [2]: 29.45 L/h/kg
- fu [3]: 0.84

Compound: O=C(COc1ccc2ccccc2c1Br)NCCc1nc2cc(Cl)ccc2[nH]1 [Compound 52]
- CLint (L/h/kg) Human [1]: 41.60 L/h/kg
- CLint_u (L/h/kg) Human [1]: 2,122.45 L/h/kg
- CLint (L/h/kg) Mouse [2]: 407.00 L/h/kg
- fu [3]: 0.02

Compound: COC(=O)c1cccc2cc(OCC(=O)NCCc3nc4ccccc4[nH]3)ccc12 [Compound 14]
- IC50 ([4]; 1.5 nM cruzain, 5.0 µM Z-FR-AMC, mean ± SD of 2–3 assays, read-out: IC50 (µM) against cruzain): 8.3 ± 2.1 µM
- inhibition at 100 µM [4]: 92%
